Measured values taken from ChEMBL document CHEMBL4765471, “1-Methyl-1H-pyrazole-5-carboxamide Derivatives Exhibit Unexpected Acute Mammalian Toxicity” (J Med Chem, 2021).

Columns and labels:
[1] = Toxicity in human MCF-10A cells; type: cell-based
[2] = Toxicity in rat FAO cells assessed as reduction in cellular respiration incubated over 1 hrs by extracellular flux analyzer based assay; type: cell-based
[3] = Selectivity index, ratio of IC50 for toxicity in rat FAO cells assessed as reduction in cellular respiration to IC50 for inhibition of Haemonchus contortus by L4 development assay
[4] = Inhibition of Haemonchus contortus by L4 development assay; type: functional
[5] = Toxicity in orally dosed Swiss mouse assessed as induction of observable clinical effects measured 2 to 4 days after dosing; type: organism-based; details: in vivo, po, time 2-4 day
[6] = Toxicity in rat FAO cells assessed as reduction in cell proliferation incubated for 48 hrs by crystal violet staining based assay
[7] = Toxicity in Swiss mouse assessed as induction of reversible motor depression at 5 mg/kg, po measured at first 15 mins post dosing; type: organism-based; details: in vivo, 0.25 h
[8] = Toxicity in female Swiss mouse assessed as induction of reversible motor depression at 20 mg/kg, po; type: organism-based; details: in vivo
[9] = Toxicity in male Swiss mouse assessed as induction of reversible motor depression at 20 mg/kg, po; type: organism-based; details: in vivo
[10] = Toxicity in male Swiss mouse assessed as induction of reversible motor depression at 50 mg/kg, po; type: organism-based; details: in vivo
[11] = Toxicity in female Swiss mouse assessed as induction of reversible motor depression at 30 mg/kg, po; type: organism-based; details: in vivo

For `Cn1ncc(Cl)c1C(=O)NCc1ccc(Oc2ccc(Cl)nc2)cc1`, the IC50 [1] was > 50 µM, the IC50 at 1 h [2] was 1.9 µM and the “Ratio IC50” value [3] was 63. For the same compound, the IC50 [4] was 0.03 µM, the MTD [5] was 1 mg/kg and the IC50 at 48 h [6] was < 6 µM. For the same compound, the Activity [7] was “Toxic”.
With `Cc1nn(C)c(C(=O)NCc2ccc(Oc3ccc(Cl)nc3)cc2)c1Cl` the IC50 [1] was > 50 µM, the IC50 at 1 h [2] was 0.15 µM and the “Ratio IC50” value [3] was 500. The IC50 [4] was 0.0003 µM, the MTD [5] was 1 mg/kg and the IC50 at 48 h [6] was < 6 µM. The Activity [7] was “Toxic”.
With `Cc1nn(C)c(C(=O)NCc2ccc(Oc3ccc(Cl)cc3)cc2)c1Cl` the IC50 [1] was 50 µM, the IC50 at 1 h [2] was 1.27 µM and the “Ratio IC50” value [3] was 181. The IC50 [4] was < 0.0007 µM and the IC50 at 48 h [6] was < 6 µM.
With `CCc1nn(C)c(C(=O)NCc2ccc(Oc3ccc(C)cc3)cc2)c1Cl` [TOLFENPYRAD] the IC50 [1] was 33.7 µM, the IC50 at 1 h [2] was 1.1 µM and the “Ratio IC50” value [3] was 55. The IC50 [4] was 0.02 µM, the MTD [5] was 1 mg/kg and the IC50 at 48 h [6] was < 6 µM. For the same compound, the Activity [7] was “Toxic”.
For `Cn1ncc(Cl)c1C(=O)NCc1ccc(Oc2ccc(Cl)cc2)cc1`, the IC50 [1] was > 50 µM, the IC50 at 1 h [2] was 1.7 µM and the “Ratio IC50” value [3] was 1700. For the same compound, the Activity [8] was “Toxic”, the IC50 [4] was 0.001 µM and the MTD [5] was 5 mg/kg. For the same compound, the Activity [9] was “Toxic” and the IC50 at 48 h [6] was < 6 µM.
With `CCc1nc(-c2ccc(CNC(=O)c3ccnn3C)cc2)no1` the IC50 [1] was > 100 µM, the IC50 at 1 h [2] was 1.3 µM and the “Ratio IC50” value [3] was 7. The IC50 [4] was 0.2 µM, the MTD [5] was 1 mg/kg and the IC50 at 48 h [6] was < 6 µM. The Activity [7] was “Toxic”.
For `Cn1ncc(Cl)c1C(=O)NCc1ccc(-c2noc(C3CC3)n2)cc1`, the IC50 [1] was 24.3 µM, the IC50 at 1 h [2] was 3.73 µM and the “Ratio IC50” value [3] was 4144. For the same compound, the IC50 [4] was 0.0009 µM, the MTD [5] was 1 mg/kg and the IC50 at 48 h [6] was < 6 µM. For the same compound, the Activity [7] was “Toxic”.
With `CCc1nn(C)c(C(=O)NCc2ccc(Oc3ccc(Cl)cc3)cc2)c1Cl` the IC50 [1] was 8.7 µM, the IC50 at 1 h [2] was 0.51 µM and the “Ratio IC50” value [3] was 6. For the same compound, the IC50 [4] was 0.08 µM and the IC50 at 48 h [6] was < 6 µM.
In the case of `Cc1ccc(Oc2ccc(CNC(=O)c3c(F)cnn3C)cc2)cc1`, the IC50 [1] is reported as 13.7 µM, the IC50 at 1 h [2] is reported as 4.3 µM and the Activity [10] is reported as “Toxic”. The “Ratio IC50” value [3] was 430, the IC50 [4] was 0.01 µM and the MTD [5] was 20 mg/kg. For the same compound, the Activity [11] was “Toxic” and the IC50 at 48 h [6] was < 6 µM.
In the case of `CCc1nc(-c2ccc(CNC(=O)c3c(Cl)c(CC)nn3C)cc2)no1`, the IC50 [1] is reported as > 50 µM, the IC50 at 1 h [2] is reported as 0.16 µM and the “Ratio IC50” value [3] is reported as 80. For the same compound, the IC50 [4] was 0.002 µM and the IC50 at 48 h [6] was < 6 µM.
